The text below walks through data of paper PMC10643130, “Molecular basis for selective uptake and elimination of organic anions in the kidney by OAT1” (Nature Structural & Molecular Biology, 2023).

Numbering of substitutions follows the chain as printed. Like-named read-outs stand apart in the source and are kept apart here.

One data set relates to OAT2. The following applies: cited from earlier work.
The test system of the next data set is OAT3. The following applies: cited from earlier work.
The subject of the next data set is URAT1. The following applies: cited from earlier work.
Data set [1] concerns the target T1, human OAT1 Gly227Ala (G227A) (Homo sapiens, UniProt Q4U2R8, G227A).
T1 sequence (Q4U2R8 1-563 G227A): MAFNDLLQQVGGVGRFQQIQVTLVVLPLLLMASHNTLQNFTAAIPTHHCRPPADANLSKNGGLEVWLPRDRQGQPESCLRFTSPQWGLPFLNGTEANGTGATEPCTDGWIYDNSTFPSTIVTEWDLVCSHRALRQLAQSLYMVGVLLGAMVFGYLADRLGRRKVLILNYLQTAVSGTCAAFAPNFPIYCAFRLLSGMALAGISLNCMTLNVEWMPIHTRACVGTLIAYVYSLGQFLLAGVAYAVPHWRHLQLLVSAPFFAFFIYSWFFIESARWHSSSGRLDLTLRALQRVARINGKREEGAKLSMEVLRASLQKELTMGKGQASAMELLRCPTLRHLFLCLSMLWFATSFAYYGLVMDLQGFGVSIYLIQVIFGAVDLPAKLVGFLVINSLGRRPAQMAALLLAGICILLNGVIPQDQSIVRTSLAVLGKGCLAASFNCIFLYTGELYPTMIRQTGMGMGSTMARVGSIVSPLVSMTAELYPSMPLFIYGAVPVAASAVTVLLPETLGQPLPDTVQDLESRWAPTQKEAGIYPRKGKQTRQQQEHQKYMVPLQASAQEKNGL
As to the kind of experiment: cell-based.

Data set [2] addresses T2, wild-type human OAT1 (HsOAT1) (Homo sapiens, UniProt Q4U2R8).
T2 sequence (Q4U2R8 1-563): T1 sequence (Q4U2R8 1-563 G227A) with A227G
The data set can be described thus: cell-based.
Method: (§1) To assay HsOAT1 transporter activity the model substrate 6-carboxyfluorescein (6-CF)[46],[47]
(§2) For transport assays, 1 × 10^5 cells per well were seeded into 24-well plates and 24 h later transfected using FUGENE HD (Promega E2311) Transfection Reagent (0.4 μg DNA per 1 μl of FUGENE per well) with HsOAT1 constructs containing a C-terminal FLAG tag in the vector pCDNA3.1 for 36 h. Expression of each mutant of HsOAT1 was assessed through western blotting on membrane fractions using an anti-FLAG antibody 1:3,000 dilution (Merck F1804), using a loading control of anti-β-actin 1:5,000 dilution (Merck A2228) (Extended Data Fig. 4). […] Background fluorescence was subtracted from cells transfected with the empty plasmid, and the data were normalized to 100%. To assess the activity of HsOAT1 in the presence and absence of chloride, the buffer was 120 mM NaCl, 28 mM glucose and 25 mM HEPES, pH 7.2 or for chloride-free conditions, and 120 mM sodium gluconate was used. […] To study the effect of ligands or inhibitors, the compound of interest was added to the assay buffer at the desired concentration. […] Each concentration was repeated three times to calculate standard errors, and the whole experiment was repeated three times to calculate the mean IC50 and standard error.

In data set [3] the target is T2, wild-type human OAT1 (HsOAT1). The data set can be described thus: Cell-based 6-CF transport assay, wild-type HsOAT1 in HeLa cells.
Method: as §1, §2
In data set [4] the target is T3, human OAT1 Tyr230Phe (Y230F) (Homo sapiens, UniProt Q4U2R8, Y230F).
T3 sequence (Q4U2R8 1-563 Y230F): T1 sequence (Q4U2R8 1-563 G227A) with A227G, Y230F
The data set can be described thus: Cell-based 6-CF transport assay, HsOAT1 Tyr230Phe mutant. The following applies: 8 min.

The target in data set [5] is T4, OAT1 Ser350Ala (S350A) mutant, human (Homo sapiens, UniProt Q4U2R8, S350A).
T4 sequence (Q4U2R8 1-563 S350A): T1 sequence (Q4U2R8 1-563 G227A) with A227G, S350A
The data set can be described thus: Cell-based 6-CF transport assay, HsOAT1 Ser350Ala mutant. The note with it: pH 7.2, probe 6-carboxyfluorescein (6-CF), 10 μM 6-CF, HeLa cells, mean ± s.d.

[6] abbreviates: 8 min, read-out: 6-CF uptake, Mean.

With `CCCN(CCC)S(=O)(=O)c1ccc(C(=O)O)cc1` [probenecid], in the data set on OAT2, the “inhibition of OAT2” value is on record as “poor inhibitor”. In addition, the “inhibition of OAT3” value with OAT3 is on record as “inhibitor”. Besides, the “inhibition of URAT1” value in the data set with URAT1 is on record as “inhibitor”.

In general, IC50 refers to the concentration at which inhibition is half-maximal. Higher therefore signals weaker potency in that assay. As for `C[C@H](Cn1cnc2c(N)ncnc21)OCP(=O)(O)O` [tenofovir], the remaining activity at 1 µM in data set [1] (setting [6]) is 99.8%; in data set [4] (read-out: 6-CF uptake, Mean), 99%. Besides, the remaining activity at 2 µM worked out at 82.7% in data set [1] (setting [6]) and 95.2% in data set [4] (read-out: 6-CF uptake, Mean). Further, the remaining activity at 2.30103 µM in data set [1] (setting [6]) came out at 69.5%; in data set [4] (read-out: 6-CF uptake, Mean) it was 87%. The remaining activity at 2.60206 µM in data set [1] (setting [6]) was found to be 40.3%; in data set [4] (read-out: 6-CF uptake, Mean), 68.5%. The remaining activity at 3 µM amounted to 31.2% in data set [1] (setting [6]) and 52.3% in data set [4] (read-out: 6-CF uptake, Mean). Besides, the remaining activity at 3.17609 µM came out at 15.6% in data set [1] (setting [6]) and 35% in data set [4] (read-out: 6-CF uptake, Mean). Moreover, the “effect of Gly227Ala mutant on tenofovir recognition” value in data set [1] (versus wild type, Fig. 2f) is reported as “no discernible effect”. For the same compound, the IC50 was 120 ± 19 µM in data set [2] and 450 ± 26 µM in data set [4] (Tyr230Phe, 10 μM 6-CF, HeLa cells, mean ± s.d.). Moreover, the “6-CF uptake, MEAN” value in data set [3] was 99%; in data set [3] (WT Tenofovir, uM column 2) it was 79%; in data set [3] (WT Tenofovir, uM column 2.30103), 65%; in data set [3] (WT Tenofovir, uM column 2.60206), 35%; in data set [3] (WT Tenofovir, uM column 3), 24%; in data set [3] (WT Tenofovir, uM column 3.17609) it was 12%. This compound displayed an IC50 at 8 min in data set [5] of 241 ± 11 µM.
